This note sets out measurements from patent US20230203041A1, “ANTAGONISTS OF THE ADENOSINE A2A RECEPTOR” (AdoRx Therapeutics Limited, priority 2020, published 2023).

The target of assay [1] is T1, human Adenosine A1 receptor (Homo sapiens, UniProt P30542).
T1 sequence (P30542 1-326): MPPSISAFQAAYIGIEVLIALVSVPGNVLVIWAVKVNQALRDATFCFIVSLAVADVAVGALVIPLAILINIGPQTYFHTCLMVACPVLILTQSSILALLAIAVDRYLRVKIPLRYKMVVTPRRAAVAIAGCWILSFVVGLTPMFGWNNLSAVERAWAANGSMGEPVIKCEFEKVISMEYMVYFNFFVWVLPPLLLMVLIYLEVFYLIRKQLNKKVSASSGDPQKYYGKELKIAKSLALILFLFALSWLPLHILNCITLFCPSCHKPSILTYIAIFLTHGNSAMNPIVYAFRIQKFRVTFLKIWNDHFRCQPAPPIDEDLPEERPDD
Briefly: Adenosine receptor TR-FRET binding assay (CA200645 displacement), A1. A general note: TR-FRET usually uses a lanthanide donor and a delayed reading to cut background.
Protocol: All FRET binding experiments were conducted at room temperature in white 384-well plates, in assay binding buffer containing 1×LabMed (Cisbio, France), 100 μg/mL saponin, 1% DMSO and 0.02% pluronic acid. Binding of the fluorescently labelled Adenosine receptor antagonist XAC (CA200645, FRET acceptor) to terbium-labelled A1, A2a, A2b and A3 adenosine receptors (FRET donors) was detected by time-resolved FRET due to the close proximity of the donor and acceptor in a binding event. To investigate the ability of unlabelled test compounds to bind to Adenosine A1, A2a, A2b and A3 receptors, dose response curves were constructed that determined the ability of a range of concentrations to inhibit the binding of 30 nM CA200645 to the A2b receptor and 100 nM CA200645 to the A1, A2a, and A3 receptor.
Serial dilution (1:3 dilutions) of test compounds in neat DMSO and transfer of a 400 nL sample of test compound into the assay plate was carried out using the Mosquito (TTP Labtech, UK). The compound samples were incubated for 2 hours at room temperature with a fixed concentration of CA200645 defined for each receptor (see above) and CHO cell membranes containing the human Adenosine A1 (0.5 μg/well), A2a (0.3 μg/well), A2b (1 μg/well) or A3 (1 μg/well) receptor in 40 μL of assay buffer. Total and non-specific binding of CA200645 was determined in the absence and presence of 10 μM XAC, respectively. Following 2 hours incubation, the level of CA200645 binding was detected on a Pherastar FSX (BMG Labtech, Germany) using standard TR-FRET settings. The terbium donor was excited with three laser flashes at a wavelength of 337 nm, and donor and acceptor emission was detected at 620 nm and 665 nm wavelengths, respectively. FRET ratios were obtained by multiplying the acceptor/donor ratio value by 10,000. Specific binding was determined by subtracting the non-specific binding FRET ratio from the total binding FRET ratio. Compound IC50 curves were analysed using GraphPad Prism 7.0 (GraphPad, USA) and Ki affinity values were determined from the obtained IC50 values using the method of Cheng and Prusoff.

Assay [2] concerns the target T2, human Adenosine A3 receptor (Homo sapiens, UniProt P0DMS8).
T2 sequence (P0DMS8 1-318): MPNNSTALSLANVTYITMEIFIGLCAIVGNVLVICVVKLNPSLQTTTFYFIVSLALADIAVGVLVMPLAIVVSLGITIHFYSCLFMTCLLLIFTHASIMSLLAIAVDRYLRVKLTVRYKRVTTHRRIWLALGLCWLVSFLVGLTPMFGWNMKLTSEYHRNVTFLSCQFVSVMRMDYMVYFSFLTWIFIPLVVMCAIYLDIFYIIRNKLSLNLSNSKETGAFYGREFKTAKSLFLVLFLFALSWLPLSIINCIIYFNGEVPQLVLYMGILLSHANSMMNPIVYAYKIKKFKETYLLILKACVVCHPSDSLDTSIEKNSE
In words: Adenosine receptor TR-FRET binding assay (CA200645 displacement), A3.

The target in assay [3] is T3, human Adenosine A2b receptor (Homo sapiens, UniProt P29275).
T3 construct: expressed in transfected cells; host or cells: CHO cell membranes
T3 sequence (P29275 1-332): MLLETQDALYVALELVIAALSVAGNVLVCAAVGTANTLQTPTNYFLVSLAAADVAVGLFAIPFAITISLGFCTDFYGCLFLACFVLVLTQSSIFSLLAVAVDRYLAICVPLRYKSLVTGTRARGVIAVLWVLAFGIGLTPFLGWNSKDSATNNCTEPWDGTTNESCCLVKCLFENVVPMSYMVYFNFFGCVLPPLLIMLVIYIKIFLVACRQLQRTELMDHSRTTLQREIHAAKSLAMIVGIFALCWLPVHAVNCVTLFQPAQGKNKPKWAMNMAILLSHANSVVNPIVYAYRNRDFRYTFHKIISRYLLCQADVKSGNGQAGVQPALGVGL
In words: Adenosine receptor TR-FRET binding assay (CA200645 displacement), A2b. Particulars: 30 nM CA200645, CHO cell membranes, 2 hours at room temperature.

Assay [4] addresses T4, human Adenosine A2a receptor (Homo sapiens, UniProt P29274).
T4 construct: expressed in transfected cells; host or cells: CHO cell membranes
In words: Adenosine receptor TR-FRET binding assay (CA200645 displacement), A2a. The note with it: 100 nM CA200645, CHO cell membranes, 2 hours at room temperature.

Where a name gives a salt, the structure may show the parent alone. Where only a bound is given, the exact number is not on record here.

T4 sequence (P29274 whole entry): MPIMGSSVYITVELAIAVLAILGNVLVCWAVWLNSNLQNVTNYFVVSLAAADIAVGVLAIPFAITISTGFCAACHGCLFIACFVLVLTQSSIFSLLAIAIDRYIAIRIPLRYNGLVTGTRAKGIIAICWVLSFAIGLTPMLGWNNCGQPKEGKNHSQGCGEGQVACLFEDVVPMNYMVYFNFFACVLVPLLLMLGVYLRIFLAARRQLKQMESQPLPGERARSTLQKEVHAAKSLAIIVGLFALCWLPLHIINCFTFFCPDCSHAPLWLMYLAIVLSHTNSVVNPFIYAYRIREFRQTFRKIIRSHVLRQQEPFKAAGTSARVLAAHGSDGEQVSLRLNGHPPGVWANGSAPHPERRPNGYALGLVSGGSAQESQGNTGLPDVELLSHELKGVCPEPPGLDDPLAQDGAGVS

With `Cc1cc(-c2c(-c3cccc(C#N)c3)nn3ccc(C(=O)N[C@@H]4CCNC4)nc23)cc(Cl)n1` [Example 7.13, 3-(2-Chloro-6-methyl-4-pyridyl)-2-(3-cyanophenyl)-N-[(3R)-pyrrolidin-3-yl]pyrazolo[1,5-a]pyrimidine-5-carboxamide hydrochloride], the Ki (commonly the equilibrium dissociation constant of an inhibitor or competing ligand from its target) was 160 nM in assay [1], > 1000 nM in assay [2], 28 nM in assay [3] and 6.3 nM in assay [4].

For `Cc1cc(-c2c(-c3cccc(C#N)c3)nn3ccc(C(=O)NC4CCNCC4)nc23)cc(Cl)n1` [Example 7.15, 3-(2-Chloro-6-methyl-4-pyridyl)-2-(3-cyanophenyl)-N-(4-piperidyl)pyrazolo[1,5-a]pyrimidine-5-carboxamide], the Ki in assay [1] was 703 nM; in assay [2], > 1000 nM; in assay [3], 25 nM; in assay [4], 22.1 nM.

For the compound `Cc1cc(-c2c(-c3cccc(C#N)c3)nn3ccc(C(C)(C)O)nc23)cc(Cl)n1` [Example 8, 3-[3-(2-Chloro-6-methyl-4-pyridyl)-5-(1-hydroxy-1-methyl-ethyl)pyrazolo[1,5-a]pyrimidin-2-yl]benzonitrile], the Ki in assay [1] was 291 nM; in assay [2] it was > 1000 nM; in assay [3], 41 nM; in assay [4], 9.9 nM.

Regarding `Cc1cc(-c2c(-c3cccc(C#N)c3)nn3ccc(NS(C)(=O)=O)nc23)cc(Cl)n1` [Example 16, N-[3-(2-Chloro-6-methyl-4-pyridyl)-2-(3-cyanophenyl)pyrazolo[1,5-a]pyrimidin-5-yl]methanesulfonamide], the Ki amounted to 303 nM in assay [1], 1180 nM in assay [2], 1 nM in assay [3] and 13.7 nM in assay [4].

Regarding `Cc1cc(-c2c(-c3cccc(C#N)c3)nn3ccc(N[C@@H](C)C(=O)O)nc23)cc(Cl)n1` [Example 17, (2S)-2-[[3-(2-Chloro-6-methyl-4-pyridyl)-2-(3-cyanophenyl)pyrazolo[1,5-a]pyrimidin-5-yl]amino]propanoic acid], the Ki in assay [1] was 136 nM; in assay [2], > 1000 nM; in assay [3] it was 101 nM; in assay [4], 17.9 nM.

For `Cc1cc(-c2c(-c3cccc(C#N)c3)nn3ccc(O[C@@H]4CCNC4)nc23)cc(Cl)n1` [Example 18, 3-[3-(2-Chloro-6-methyl-4-pyridyl)-5-[(3R)-pyrrolidin-3-yl]oxy-pyrazolo[1,5-a]pyrimidin-2-yl]benzonitrile formate], the Ki was 54 nM in assay [1], > 1000 nM in assay [2], 16 nM in assay [3] and 9.7 nM in assay [4].

For the compound `Cc1cc(-c2c(-c3cccc(C#N)c3)nn3ccc(CN4CCOCC4)nc23)cc(Cl)n1` [Example 20, 3-[3-(2-Chloro-6-methyl-4-pyridyl)-5-(morpholinomethyl)pyrazolo[1,5-a]pyrimidin-2-yl]benzonitrile], the Ki in assay [1] is 573 nM; in assay [2], > 1000 nM; in assay [3], 22 nM; in assay [4], 11.6 nM.

With `Cc1cc(-c2c(-c3cccc(C#N)c3)nn3ccc(CN4CCNCC4)nc23)cc(C)n1` [Example 20.1, 3-[3-(2,6-Dimethyl-4-pyridyl)-5-(piperazin-1-ylmethyl)pyrazolo[1,5-a]pyrimidin-2-yl]benzonitrile trifluoroacetate], the Ki was 2530 nM in assay [1], > 1000 nM in assay [2], 626 nM in assay [3] and 116 nM in assay [4].

As to `Cc1cc(-c2c(-c3cccc(C#N)c3)nn3ccc(CN)nc23)cc(Cl)n1` [Example 21, 3-[5-(Aminomethyl)-3-(2-chloro-6-methyl-4-pyridyl)pyrazolo[1,5-a]pyrimidin-2-yl]benzonitrile], the Ki was 2440 nM in assay [1], > 1000 nM in assay [2], 102 nM in assay [3] and 81.5 nM in assay [4].

On to `Cc1cc(-c2c(-c3cccc(C#N)c3)nn3ccc(CCC(C)(C)O)nc23)cc(Cl)n1` [Example 22, 3-[3-(2-Chloro-6-methyl-4-pyridyl)-5-(3-hydroxy-3-methyl-butyl)pyrazolo[1,5-a]pyrimidin-2-yl]benzonitrile], for which the Ki in assay [1] was 141 nM; in assay [2] it was > 1000 nM; in assay [3], 34 nM; in assay [4], 1 nM.

In the case of `Cc1cc(-c2c(-c3cccc(C#N)c3)nn3ccc(N(C)C)nc23)cc(Cl)n1` [Example 23.4], the Ki turned out to be 163 nM in assay [1], 1980 nM in assay [2], 90 nM in assay [3] and 10.2 nM in assay [4].

With `Cc1cc(-c2c(-c3cccc(C#N)c3)nn3ccc(O[C@@H]4CCCNC4)nc23)cc(Cl)n1` [Example 24.1, 3-[3-(2-Chloro-6-methyl-4-pyridyl)-5-[[(3R)-3-piperidyl]oxy]pyrazolo[1,5-a]pyrimidin-2-yl]benzonitrile], the Ki turned out to be 9 nM in assay [1], 1650 nM in assay [2], 29 nM in assay [3] and 3.3 nM in assay [4].

Turning to `Cc1cc(-c2c(-c3cccc(C#N)c3)nn3ccc(N)nc23)cnc1N` [Example 26, 3-[5-Amino-3-(6-amino-5-methyl-3-pyridyl)pyrazolo[1,5-a]pyrimidin-2-yl]benzonitrile], the Ki came out at 6 nM in assay [1], 2430 nM in assay [2], 409 nM in assay [3] and 147 nM in assay [4].

With `Cc1cc(-c2c(-c3cccc(C#N)c3)nn3ccc(N)nc23)cc(F)n1` [Example 26.4, 3-[5-Amino-3-(2-fluoro-6-methyl-4-pyridyl)pyrazolo[1,5-a]pyrimidin-2-yl]benzonitrile], the Ki in assay [1] turned out to be 6 nM; in assay [2], 578 nM; in assay [3], 16 nM; in assay [4], 10.1 nM.

`Cn1cc(-c2c(-c3cccc(C#N)c3)nn3ccc(N)nc23)cn1` [Example 26.5, 3-[5-Amino-3-(1-methylpyrazol-4-yl)pyrazolo[1,5-a]pyrimidin-2-yl]benzonitrile]: the Ki in assay [1] turned out to be 89 nM; in assay [2], 749 nM; in assay [3], 1200 nM; in assay [4] it was 105 nM.

As for `Cc1cc(-c2c(-c3cccc(C#N)c3)nn3ccc(N)nc23)cc(C)[n+]1[O-]` [Example 27, 3-[5-Amino-3-(2,6-dimethyl-1-oxido-pyridin-1-ium-4-yl)pyrazolo[1,5-a]pyrimidin-2-yl]benzonitrile], the Ki in assay [1] is 4 nM; in assay [2], > 1000 nM; in assay [3], 2 nM; in assay [4] it was 1.8 nM.

For `Cc1cc(-c2c(-c3cccc(C#N)c3)nn3ccc(N)nc23)cc(C(N)=O)n1` [Example 27.2, 4-[5-Amino-2-(3-cyanophenyl)pyrazolo[1,5-a]pyrimidin-3-yl]-6-methyl-pyridine-2-carboxamide], the inhibition constant Ki is 17 nM in assay [1], > 1000 nM in assay [2], 39 nM in assay [3] and 13.3 nM in assay [4].

Consider `CC(=O)Nc1cc(-c2c(-c3cccc(C#N)c3)nn3ccc(N)nc23)cc(C)n1` [Example 27.4, N-[4-[5-Amino-2-(3-cyanophenyl)pyrazolo[1,5-a]pyrimidin-3-yl]-6-methyl-2-pyridyl]acetamide], for which the Ki was 583 nM in assay [1], > 1000 nM in assay [2], 519 nM in assay [3] and 54.1 nM in assay [4].

Turning to `Cc1cc(-c2c(-c3cccc(C#N)c3)nn3ccc(N)nc23)cc2ncnn12` [Example 27.5, 3-[5-Amino-3-(5-methyl-[1,2,4]triazolo[1,5-a]pyridin-7-yl)pyrazolo[1,5-a]pyrimidin-2-yl]benzonitrile], the Ki in assay [1] is 46 nM; in assay [2], > 1000 nM; in assay [3] it was 108 nM; in assay [4], 360 nM.

Take `Cc1cc(-c2c(-c3cccc(C#N)c3)nn3ccc(N)nc23)cc(C(=O)O)n1` [Example 28, 4-[5-Amino-2-(3-cyanophenyl)pyrazolo[1,5-a]pyrimidin-3-yl]-6-methyl-pyridine-2-carboxylic acid]: the Ki was 1120 nM in assay [1], > 1000 nM in assay [2], 2460 nM in assay [3] and 359 nM in assay [4].

With `Cc1cc(-c2c(-c3cccc(C#N)c3)nn3ccc(N)nc23)cc(N(C)C)n1` [Example 29, 3-[5-Amino-3-[2-(dimethylamino)-6-methyl-4-pyridyl]pyrazolo[1,5-a]pyrimidin-2-yl]benzonitrile], the Ki in assay [1] is 144 nM; in assay [2], > 1000 nM; in assay [3], 56 nM; in assay [4] it was 15.2 nM.
